ChEMBL document CHEMBL1140941 (J Med Chem, 2009)
Activity calls are given as the source filed them. The rule behind the calls is not given here.

Columns and labels:
[1] = biological target: Oxysterols receptor LXR-beta (Homo sapiens) (UniProt P55055); test: Agonist activity at LXRbeta expressed in african green monkey CV1 cells co-expressing LXRE up to 10 uM by luciferase reporter gene assay relative to control; type: functional, cell-based; conditions: CV-1
[2] = biological target: T1, Mineralocorticoid receptor (Homo sapiens) (UniProt P08235); test: Agonist activity at gal-MR expressed in african green monkey CV1 cells co-expressing MH100 by luciferase reporter gene assay; type: functional, cell-based; conditions: CV-1
T1 sequence (whole entry): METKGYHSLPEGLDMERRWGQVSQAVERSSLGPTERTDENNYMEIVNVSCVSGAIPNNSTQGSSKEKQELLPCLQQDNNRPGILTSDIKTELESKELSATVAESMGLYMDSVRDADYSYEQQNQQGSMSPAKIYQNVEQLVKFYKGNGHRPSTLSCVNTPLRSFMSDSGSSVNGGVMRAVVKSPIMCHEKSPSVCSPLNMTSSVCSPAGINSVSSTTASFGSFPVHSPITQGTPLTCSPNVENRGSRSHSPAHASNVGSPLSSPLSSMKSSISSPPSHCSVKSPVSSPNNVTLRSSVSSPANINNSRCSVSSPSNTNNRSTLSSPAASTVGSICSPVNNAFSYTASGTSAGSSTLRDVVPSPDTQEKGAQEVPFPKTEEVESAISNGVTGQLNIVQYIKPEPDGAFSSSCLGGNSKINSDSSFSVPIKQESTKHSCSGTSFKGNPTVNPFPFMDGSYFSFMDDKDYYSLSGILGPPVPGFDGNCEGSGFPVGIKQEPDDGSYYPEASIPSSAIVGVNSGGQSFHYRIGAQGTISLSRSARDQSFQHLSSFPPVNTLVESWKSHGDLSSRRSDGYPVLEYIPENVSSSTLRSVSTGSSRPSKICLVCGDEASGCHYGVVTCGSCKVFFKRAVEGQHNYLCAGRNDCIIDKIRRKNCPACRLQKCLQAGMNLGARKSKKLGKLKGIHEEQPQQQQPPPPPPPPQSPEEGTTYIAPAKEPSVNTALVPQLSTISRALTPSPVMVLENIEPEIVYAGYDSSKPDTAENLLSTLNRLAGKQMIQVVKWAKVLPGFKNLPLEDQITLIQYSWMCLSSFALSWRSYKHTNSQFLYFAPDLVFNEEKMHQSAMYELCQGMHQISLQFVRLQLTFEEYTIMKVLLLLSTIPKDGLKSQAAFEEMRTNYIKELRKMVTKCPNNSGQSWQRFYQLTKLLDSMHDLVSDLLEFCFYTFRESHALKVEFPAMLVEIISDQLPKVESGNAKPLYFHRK

[3] = biological target: T2, Androgen receptor (Homo sapiens) (UniProt P10275); test: Agonist activity at human gal-AR expressed in african green monkey CV1 cells co-expressing MH100 with pGRIP1 co-factor by luciferase reporter gene assay; type: functional, cell-based; conditions: CV-1
T2 sequence (whole entry): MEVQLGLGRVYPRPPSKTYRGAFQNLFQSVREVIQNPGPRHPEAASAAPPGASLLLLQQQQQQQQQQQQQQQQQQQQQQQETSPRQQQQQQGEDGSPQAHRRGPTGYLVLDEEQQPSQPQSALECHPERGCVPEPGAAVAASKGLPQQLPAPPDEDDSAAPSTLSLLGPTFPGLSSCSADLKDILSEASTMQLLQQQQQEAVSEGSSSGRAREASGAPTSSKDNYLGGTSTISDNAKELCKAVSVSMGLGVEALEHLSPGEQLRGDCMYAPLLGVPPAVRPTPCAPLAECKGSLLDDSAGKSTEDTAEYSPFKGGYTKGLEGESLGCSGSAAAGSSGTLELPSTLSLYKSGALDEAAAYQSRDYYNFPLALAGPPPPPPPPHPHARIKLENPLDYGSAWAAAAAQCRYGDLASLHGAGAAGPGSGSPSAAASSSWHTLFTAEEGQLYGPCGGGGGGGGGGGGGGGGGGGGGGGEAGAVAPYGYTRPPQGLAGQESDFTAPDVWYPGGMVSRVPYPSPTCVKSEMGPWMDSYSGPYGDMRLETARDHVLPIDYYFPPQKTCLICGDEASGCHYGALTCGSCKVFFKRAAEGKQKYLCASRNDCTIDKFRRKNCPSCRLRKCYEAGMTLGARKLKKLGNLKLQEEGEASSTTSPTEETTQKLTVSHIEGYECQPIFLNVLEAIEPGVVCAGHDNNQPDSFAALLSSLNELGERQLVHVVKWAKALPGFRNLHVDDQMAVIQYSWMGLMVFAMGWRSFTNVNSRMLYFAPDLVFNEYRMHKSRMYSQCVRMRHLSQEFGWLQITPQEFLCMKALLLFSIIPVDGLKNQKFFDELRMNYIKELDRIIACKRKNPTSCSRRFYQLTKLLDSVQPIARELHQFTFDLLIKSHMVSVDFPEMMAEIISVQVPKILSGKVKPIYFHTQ

[4] = biological target: Glucocorticoid receptor (Homo sapiens, UniProt P04150); test: Antagonist activity at gal-GR expressed in african green monkey CV1 cells co-expressing MH100 by luciferase reporter gene assay; type: functional, cell-based, CV-1
Glucocorticoid receptor, sequence (P04150 whole entry): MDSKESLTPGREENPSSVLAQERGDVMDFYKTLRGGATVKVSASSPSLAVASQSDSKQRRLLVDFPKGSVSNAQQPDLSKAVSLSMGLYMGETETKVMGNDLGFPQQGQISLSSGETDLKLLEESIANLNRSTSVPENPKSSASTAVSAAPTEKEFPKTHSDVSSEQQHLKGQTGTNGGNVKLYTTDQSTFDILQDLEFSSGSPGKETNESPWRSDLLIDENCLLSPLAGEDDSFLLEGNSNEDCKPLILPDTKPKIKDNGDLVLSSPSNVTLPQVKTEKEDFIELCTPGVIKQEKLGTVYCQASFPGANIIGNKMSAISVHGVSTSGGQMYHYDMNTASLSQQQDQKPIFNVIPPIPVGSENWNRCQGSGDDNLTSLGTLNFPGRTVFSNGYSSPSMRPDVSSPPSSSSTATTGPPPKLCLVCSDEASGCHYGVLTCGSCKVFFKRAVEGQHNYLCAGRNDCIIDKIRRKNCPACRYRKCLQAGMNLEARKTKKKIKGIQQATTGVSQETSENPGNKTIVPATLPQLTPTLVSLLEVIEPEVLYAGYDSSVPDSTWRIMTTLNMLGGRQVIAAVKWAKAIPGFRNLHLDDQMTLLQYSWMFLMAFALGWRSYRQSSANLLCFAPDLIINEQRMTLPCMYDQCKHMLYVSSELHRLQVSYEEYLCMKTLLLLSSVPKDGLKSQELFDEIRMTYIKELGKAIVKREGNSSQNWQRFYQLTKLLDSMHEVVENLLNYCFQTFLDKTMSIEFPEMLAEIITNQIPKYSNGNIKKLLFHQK

[5] = test system: Mus musculus; test: Reduction of plasma triglyceride level in western diet-induced hyperlipidemia LDLR knockout mouse model at 3 mg/kg, po administered for 6 weeks; type: functional; design: scale not given: the % may be the effect or the level left
[6] = biological target: Estrogen receptor beta (Homo sapiens) (UniProt Q92731); test: Agonist activity at gal-ERbeta expressed in african green monkey CV1 cells co-expressing MH100 by luciferase reporter gene assay; type: functional, cell-based; conditions: CV-1
Estrogen receptor beta (Homo sapiens), sequence (Q92731 whole entry): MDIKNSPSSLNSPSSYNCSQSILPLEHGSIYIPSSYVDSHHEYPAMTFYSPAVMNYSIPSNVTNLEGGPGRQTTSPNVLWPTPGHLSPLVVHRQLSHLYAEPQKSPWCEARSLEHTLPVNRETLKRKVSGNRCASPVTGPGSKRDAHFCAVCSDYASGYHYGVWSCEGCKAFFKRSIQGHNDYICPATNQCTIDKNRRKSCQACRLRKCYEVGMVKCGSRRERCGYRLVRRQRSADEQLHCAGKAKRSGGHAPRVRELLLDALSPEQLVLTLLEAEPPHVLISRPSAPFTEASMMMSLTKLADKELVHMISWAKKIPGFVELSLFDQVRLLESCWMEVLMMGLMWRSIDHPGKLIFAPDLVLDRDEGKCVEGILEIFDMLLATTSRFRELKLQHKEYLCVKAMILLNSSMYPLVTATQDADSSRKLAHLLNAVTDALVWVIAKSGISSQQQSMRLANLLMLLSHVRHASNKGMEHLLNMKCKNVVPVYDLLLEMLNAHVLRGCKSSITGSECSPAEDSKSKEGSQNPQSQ

[7] = Cmax in CD rat at 3 mg/kg, iv; type: ADME, organism-based; design: dose 3 mg/kg, route intravenous; conditions: in vivo
[8] = biological target: T3, Estrogen receptor (Homo sapiens) (UniProt P03372); test: Agonist activity at gal-ERalpha expressed in african green monkey CV1 cells co-expressing MH100 up to 10 uM by luciferase reporter gene assay relative to control; type: functional, cell-based; conditions: CV-1
T3 sequence (whole entry): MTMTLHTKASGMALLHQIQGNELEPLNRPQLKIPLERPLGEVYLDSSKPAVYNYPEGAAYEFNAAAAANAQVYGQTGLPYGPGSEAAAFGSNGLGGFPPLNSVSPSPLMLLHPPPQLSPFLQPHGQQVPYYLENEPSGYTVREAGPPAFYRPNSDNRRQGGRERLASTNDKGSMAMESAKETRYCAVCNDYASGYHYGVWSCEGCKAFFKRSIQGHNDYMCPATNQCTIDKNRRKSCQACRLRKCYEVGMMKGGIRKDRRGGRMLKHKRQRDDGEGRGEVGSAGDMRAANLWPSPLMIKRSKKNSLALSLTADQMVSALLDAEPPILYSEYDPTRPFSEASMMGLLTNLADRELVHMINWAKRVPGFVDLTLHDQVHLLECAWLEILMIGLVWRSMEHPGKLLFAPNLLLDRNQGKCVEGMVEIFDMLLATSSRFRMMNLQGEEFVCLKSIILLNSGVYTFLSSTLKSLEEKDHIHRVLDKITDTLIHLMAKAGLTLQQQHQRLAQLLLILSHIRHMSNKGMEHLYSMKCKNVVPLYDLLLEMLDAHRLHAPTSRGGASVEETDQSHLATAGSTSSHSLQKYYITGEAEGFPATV

Oxysterols receptor LXR-beta (Homo sapiens), sequence (P55055 whole entry): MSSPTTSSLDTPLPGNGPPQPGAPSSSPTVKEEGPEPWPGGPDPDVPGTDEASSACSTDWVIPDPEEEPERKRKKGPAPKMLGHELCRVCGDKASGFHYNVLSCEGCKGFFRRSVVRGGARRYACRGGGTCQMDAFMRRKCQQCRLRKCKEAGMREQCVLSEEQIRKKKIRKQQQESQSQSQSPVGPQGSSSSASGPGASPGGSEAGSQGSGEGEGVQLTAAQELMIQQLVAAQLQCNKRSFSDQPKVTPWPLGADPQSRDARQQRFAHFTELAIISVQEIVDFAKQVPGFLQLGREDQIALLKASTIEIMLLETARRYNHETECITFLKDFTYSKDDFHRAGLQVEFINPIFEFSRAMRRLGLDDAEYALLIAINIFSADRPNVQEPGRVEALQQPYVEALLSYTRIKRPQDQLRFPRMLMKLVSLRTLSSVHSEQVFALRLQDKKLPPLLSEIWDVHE

- Activity [1]: inactive
- Activity [2]: inactive
- Activity [3]: inactive
- IC50 [4]: 10 µM
- Activity [6]: inactive
- Cmax [7]: 30.5 µM
- Activity [8]: inactive
SMILES: CC(C)OC(=O)C1=CN(C(=O)c2ccc(F)c(F)c2)CC(C)(C)c2c1[nH]c1ccccc21 [TUROFEXORATE ISOPROPYL]
- Activity [5]: 39%
